Assay results as given in ChEMBL document CHEMBL1159070, “Synthesis and disulfide bond connectivity-activity studies of a kalata B1-inspired cyclopeptide against dengue NS2B-NS3 protease” (Bioorg Med Chem, 2010).
Activity calls are given as the source filed them. The calls are words filed in the database; no cut-off is given here.

Legend:
dengue virus type 2 = assay: (§1) Inhibition of Dengue virus 2 recombinant NS2B/3 protease expressed in Escherichia coli BL21(DE3) assessed as Dabcyl-KGRRSSKL-Edans substrate cleavage by fluorimetry
[1] = as §1; parameters: species or system dengue virus type 2

| SMILES | Activity (dengue virus type 2) | IC50 [1] | Ki [1] |
| --- | --- | --- | --- |
| CC(C)C[C@@H]1NC(=O)CNC(=O)[C@H](CCCNC(=N)N)NC(=O)[C@H](CCCNC(=N)N)NC(=O)[C@H]([C@@H](C)O)NC(=O)[C@H](CS)NC(=O)[C@H](C(C)C)NC(=O)[C@@H]2CCCN2C(=O)[C@H](Cc2c[nH]c3ccccc23)NC(=O)[C@H](CO)NC(=O)[C@H](CCCNC(=N)N)NC(=O)[C@H](CCCNC(=N)N)NC(=O)[C@H](CS)NC(=O)CNC(=O)[C@H]2CCCN2C(=O)[C@H]([C@@H](C)O)NC(=O)[C@@H](N)CC(=O)NC(=O)[C@H](CS)NC(=O)CNC(=O)[C@H](CCCNC(=N)N)NC(=O)[C@H](CCCNC(=N)N)NC(=O)[C@H](CO)NC(=O)[C@H](CCC(=O)O)NC(=O)[C@H](CCC(=O)O)NC(=O)[C@H](CO)NC(=O)CNC(=O)[C@H](CS)NC(=O)[C@H](C(C)C)NC(=O)[C@@H]2CCCN2C1=O | Active |  |  |
| CC(C)C[C@@H]1NC(=O)CNC(=O)[C@H](CC(N)=O)NC(=O)[C@H](CCCNC(=N)N)NC(=O)[C@H]([C@@H](C)O)NC(=O)[C@H](CS)NC(=O)[C@H](C(C)C)NC(=O)[C@@H]2CCCN2C(=O)[C@H](CCC(=O)O)NC(=O)[C@H](CO)NC(=O)[C@H](CS)NC(=O)[C@H]([C@@H](C)O)NC(=O)[C@H](CS)NC(=O)CNC(=O)[C@@H]2CCCN2C(=O)[C@H]([C@@H](C)O)NC(=O)[C@H](CC(N)=O)NC(=O)[C@H](CS)NC(=O)[C@H]([C@@H](C)O)NC(=O)CNC(=O)CNC(=O)[C@H](C(C)C)NC(=O)[C@H](CS)NC(=O)[C@H]([C@@H](C)O)NC(=O)[C@H](CCC(=O)O)NC(=O)CNC(=O)[C@H](CS)NC(=O)[C@H](C(C)C)NC(=O)[C@@H]2CCCN2C1=O | inactive |  |  |
| CC(C)C[C@@H]1NC(=O)CNC(=O)[C@H](CCCNC(=N)N)NC(=O)[C@H](CCCNC(=N)N)NC(=O)[C@H]([C@@H](C)O)NC(=O)[C@@H]2CSSC[C@H](NC(=O)[C@H](C(C)C)NC(=O)[C@@H]3CCCN3C1=O)C(=O)NCC(=O)N[C@@H](CO)C(=O)N[C@@H](CCC(=O)O)C(=O)N[C@@H](CCC(=O)O)C(=O)N[C@@H](CO)C(=O)N[C@@H](CCCNC(=N)N)C(=O)N[C@@H](CCCNC(=N)N)C(=O)NCC(=O)N[C@H]1CSSC[C@H](NC(=O)CNC(=O)[C@@H]3CCCN3C(=O)[C@H]([C@@H](C)O)NC(=O)[C@@H](N)CC(=O)NC1=O)C(=O)N[C@@H](CCCNC(=N)N)C(=O)N[C@@H](CCCNC(=N)N)C(=O)N[C@@H](CO)C(=O)N[C@@H](Cc1c[nH]c3ccccc13)C(=O)N1CCC[C@H]1C(=O)N[C@@H](C(C)C)C(=O)N2 |  | 9.3 µM | 3030 nM |
| CC(C)C[C@@H]1NC(=O)CNC(=O)[C@H](CCCNC(=N)N)NC(=O)[C@H](CCCNC(=N)N)NC(=O)[C@H]([C@@H](C)O)NC(=O)[C@@H]2CSSC[C@H](NC(=O)CNC(=O)[C@@H]3CCCN3C(=O)[C@H]([C@@H](C)O)NC(=O)[C@@H](N)CC(=O)NC(=O)[C@@H]3CSSC[C@H](NC(=O)[C@H](C(C)C)NC(=O)[C@@H]4CCCN4C1=O)C(=O)NCC(=O)N[C@@H](CO)C(=O)N[C@@H](CCC(=O)O)C(=O)N[C@@H](CCC(=O)O)C(=O)N[C@@H](CO)C(=O)N[C@@H](CCCNC(=N)N)C(=O)N[C@@H](CCCNC(=N)N)C(=O)NCC(=O)N3)C(=O)N[C@@H](CCCNC(=N)N)C(=O)N[C@@H](CCCNC(=N)N)C(=O)N[C@@H](CO)C(=O)N[C@@H](Cc1c[nH]c3ccccc13)C(=O)N1CCC[C@H]1C(=O)N[C@@H](C(C)C)C(=O)N2 |  | 4.3 µM | 1390 nM |
| CC(C)C[C@H](NC(=O)CN)C(=O)N1CCC[C@H]1C(=O)N[C@H](C(=O)N[C@@H](CS)C(=O)NCC(=O)N[C@@H](CCC(=O)O)C(=O)N[C@H](C(=O)N[C@@H](CS)C(=O)N[C@H](C(=O)NCC(=O)NCC(=O)N[C@H](C(=O)N[C@@H](CS)C(=O)N[C@@H](CC(N)=O)C(=O)N[C@H](C(=O)N1CCC[C@H]1C(=O)NCC(=O)N[C@@H](CS)C(=O)N[C@H](C(=O)N[C@@H](CS)C(=O)N[C@@H](CO)C(=O)N[C@@H](CCC(=O)O)C(=O)N1CCC[C@H]1C(=O)N[C@H](C(=O)N[C@@H](CS)C(=O)N[C@H](C(=O)N[C@@H](CCCNC(=N)N)C(=O)N[C@@H](CC(N)=O)C(=O)O)[C@@H](C)O)C(C)C)[C@@H](C)O)[C@@H](C)O)[C@@H](C)O)C(C)C)[C@@H](C)O)C(C)C | inactive |  |  |
